# Experimental data reported in ChEMBL document CHEMBL3885881, “DrugMatrix”.
# Species on record: Rattus norvegicus
# Assay: DrugMatrix - Regimen: Daily Repeat
# Format: toxicity, organism-based, Sprague-Dawley
# Set-up: regimen Daily Repeat, gender Male, age 6-8 weeks
# Conditions: in vivo, po, route oral GAVAGE, […]; for ABSOLUTE BASOPHIL / ABSOLUTE EOSINOPHIL / ABSOLUTE LYMPHOCYTE / ABSOLUTE MONOCYTE / ABSOLUTE SEGMENTED NEUTROPHIL / BASOPHIL / EOSINOPHIL / ERYTHROCYTE COUNT / HEMATOCRIT / HEMOGLOBIN / LEUKOCYTE COUNT / LYMPHOCYTE / MEAN CORPUSCULAR HEMOGLOBIN / MEAN CORPUSCULAR HEMOGLOBIN CONCENTRATION / MEAN CORPUSCULAR VOLUME / MONOCYTE / NEUTROPHIL / NUCLEATED RED BLOOD CELLS / PLATELET COUNT: tissue Blood; for ALANINE AMINOTRANSFERASE / ALBUMIN / ALKALINE PHOSPHATASE / ASPARTATE AMINOTRANSFERASE / BLOOD UREA NITROGEN / CARBON DIOXIDE / CHLORIDE / CHOLESTEROL / CREATINE PHOSPHOKINASE / CREATININE / GLUCOSE / LACTATE DEHYDROGENASE / LIPASE / PHOSPHORUS / POTASSIUM / SODIUM / TOTAL BILIRUBIN / TOTAL PROTEIN / URIC ACID: tissue Plasma
# [1] = 0 mg/kg, 72 h, dose level Control, time 3 day
# [2] = 0 mg/kg, 120 h, dose level Control, time 5 day
# [3] = 13 mg/kg, 72 h, dose level Low, time 3 day
smiles,measurement,setting,value
CN(C)c1nc(N(C)C)nc(N(C)C)n1 [ALTRETAMINE],ABSOLUTE BASOPHIL,[1],0 CELLS/uL
same,ABSOLUTE EOSINOPHIL,[1],70.67 CELLS/uL
same,ABSOLUTE LYMPHOCYTE,[1],12761.5 CELLS/uL
same,ABSOLUTE MONOCYTE,[1],214.17 CELLS/uL
same,ABSOLUTE SEGMENTED NEUTROPHIL,[1],987 CELLS/uL
same,BASOPHIL,[1],0%
same,EOSINOPHIL,[1],0.5%
same,ERYTHROCYTE COUNT,[1],5.61 x10E6/uL
same,HEMATOCRIT,[1],35.22%
same,HEMOGLOBIN,[1],13.57 G/DL
same,LEUKOCYTE COUNT,[1],14.03 x10E3/uL
same,LYMPHOCYTE,[1],91%
same,MEAN CORPUSCULAR HEMOGLOBIN,[1],24.25 pg
same,MEAN CORPUSCULAR HEMOGLOBIN CONCENTRATION,[1],38.52 G/DL
same,MEAN CORPUSCULAR VOLUME,[1],62.9 fL
same,MONOCYTE,[1],1.5%
same,NEUTROPHIL,[1],7%
same,NUCLEATED RED BLOOD CELLS,[1],0 /100WBC
same,PLATELET COUNT,[1],997.5 x10E3/uL
same,ALANINE AMINOTRANSFERASE,[1],66.5 u/L
same,ALBUMIN,[1],3.98 G/DL
same,ALKALINE PHOSPHATASE,[1],350 u/L
same,ASPARTATE AMINOTRANSFERASE,[1],83.83 u/L
same,BLOOD UREA NITROGEN,[1],12.33 mg/dL
same,CARBON DIOXIDE,[1],30.33 mmol/L
same,CHLORIDE,[1],100 MEQ/L
same,CHOLESTEROL,[1],75 mg/dL
same,CREATINE PHOSPHOKINASE,[1],200 u/L
same,CREATININE,[1],0.17 mg/dL
same,GLUCOSE,[1],170 mg/dL
same,LACTATE DEHYDROGENASE,[1],89.33 u/L
same,LIPASE,[1],10.33 u/L
same,PHOSPHORUS,[1],10.88 mg/dL
same,POTASSIUM,[1],6.13 MEQ/L
same,SODIUM,[1],140.53 MEQ/L
same,TOTAL BILIRUBIN,[1],0.2 mg/dL
same,TOTAL PROTEIN,[1],5.67 G/DL
same,URIC ACID,[1],1.6 mg/dL
same,ABSOLUTE BASOPHIL,[2],0 CELLS/uL
same,ABSOLUTE EOSINOPHIL,[2],0 CELLS/uL
same,ABSOLUTE LYMPHOCYTE,[2],9526.67 CELLS/uL
same,ABSOLUTE MONOCYTE,[2],134.17 CELLS/uL
same,ABSOLUTE SEGMENTED NEUTROPHIL,[2],922.5 CELLS/uL
same,BASOPHIL,[2],0%
same,EOSINOPHIL,[2],0%
same,ERYTHROCYTE COUNT,[2],5.58 x10E6/uL
same,HEMATOCRIT,[2],34.78%
same,HEMOGLOBIN,[2],13.5 G/DL
same,LEUKOCYTE COUNT,[2],10.58 x10E3/uL
same,LYMPHOCYTE,[2],90.17%
same,MEAN CORPUSCULAR HEMOGLOBIN,[2],24.27 pg
same,MEAN CORPUSCULAR HEMOGLOBIN CONCENTRATION,[2],38.82 G/DL
same,MEAN CORPUSCULAR VOLUME,[2],62.48 fL
same,MONOCYTE,[2],1.17%
same,NEUTROPHIL,[2],8.67%
same,NUCLEATED RED BLOOD CELLS,[2],0.17 /100WBC
same,PLATELET COUNT,[2],807.17 x10E3/uL
same,ALANINE AMINOTRANSFERASE,[2],66.83 u/L
same,ALBUMIN,[2],3.73 G/DL
same,ALKALINE PHOSPHATASE,[2],286.17 u/L
same,ASPARTATE AMINOTRANSFERASE,[2],142.33 u/L
same,BLOOD UREA NITROGEN,[2],14.67 mg/dL
same,CARBON DIOXIDE,[2],25.5 mmol/L
same,CHLORIDE,[2],89.17 MEQ/L
same,CHOLESTEROL,[2],75.17 mg/dL
same,CREATINE PHOSPHOKINASE,[2],310.67 u/L
same,CREATININE,[2],0.2 mg/dL
same,GLUCOSE,[2],153 mg/dL
same,LACTATE DEHYDROGENASE,[2],1594 u/L
same,LIPASE,[2],14.83 u/L
same,PHOSPHORUS,[2],11.28 mg/dL
same,POTASSIUM,[2],8.46 MEQ/L
same,SODIUM,[2],126.88 MEQ/L
same,TOTAL BILIRUBIN,[2],0.37 mg/dL
same,TOTAL PROTEIN,[2],5.53 G/DL
same,URIC ACID,[2],1.52 mg/dL
same,ABSOLUTE BASOPHIL,[3],0 CELLS/uL
same,ABSOLUTE EOSINOPHIL,[3],45.67 CELLS/uL
same,ABSOLUTE LYMPHOCYTE,[3],11954 CELLS/uL
same,ABSOLUTE MONOCYTE,[3],232.67 CELLS/uL
same,ABSOLUTE SEGMENTED NEUTROPHIL,[3],1567.67 CELLS/uL
same,BASOPHIL,[3],0%
same,EOSINOPHIL,[3],0.33%
same,ERYTHROCYTE COUNT,[3],5.86 x10E6/uL
same,HEMATOCRIT,[3],37.47%
same,HEMOGLOBIN,[3],14.6 G/DL
same,LEUKOCYTE COUNT,[3],13.8 x10E3/uL
same,LYMPHOCYTE,[3],86.67%
same,MEAN CORPUSCULAR HEMOGLOBIN,[3],24.97 pg
same,MEAN CORPUSCULAR HEMOGLOBIN CONCENTRATION,[3],38.97 G/DL
same,MEAN CORPUSCULAR VOLUME,[3],64 fL
same,MONOCYTE,[3],1.67%
same,NEUTROPHIL,[3],11.33%
same,NUCLEATED RED BLOOD CELLS,[3],0 /100WBC
same,PLATELET COUNT,[3],1022.33 x10E3/uL
same,ALANINE AMINOTRANSFERASE,[3],99.33 u/L
same,ALBUMIN,[3],4.03 G/DL
same,ALKALINE PHOSPHATASE,[3],392.33 u/L
same,ASPARTATE AMINOTRANSFERASE,[3],89.67 u/L
same,BLOOD UREA NITROGEN,[3],12.33 mg/dL
same,CARBON DIOXIDE,[3],29 mmol/L
same,CHLORIDE,[3],99 MEQ/L
same,CHOLESTEROL,[3],87.33 mg/dL
same,CREATINE PHOSPHOKINASE,[3],288 u/L
same,CREATININE,[3],0.18 mg/dL
same,GLUCOSE,[3],161 mg/dL
same,LACTATE DEHYDROGENASE,[3],193 u/L
same,LIPASE,[3],10.67 u/L
same,PHOSPHORUS,[3],11.53 mg/dL
same,POTASSIUM,[3],6.64 MEQ/L
same,SODIUM,[3],140.43 MEQ/L
same,TOTAL BILIRUBIN,[3],0.23 mg/dL
same,TOTAL PROTEIN,[3],5.83 G/DL
same,URIC ACID,[3],1.97 mg/dL
